Data from the SangsterLogP compilation.

Conditions: pH 2.0
Work on `Cc1cc(C)n2nc(S[C@@H](C)C(=O)NCC(=O)Nc3ccc(F)c(F)c3F)nc2n1` yielded a logD of 2.18.
Molecule `O=C(/C=C/c1ccco1)Nc1ccccc1NC(=O)/C=C/c1ccco1` has a logD of 3.79.
With `CCOC(=O)/C=c1/s/c(=C/c2c(F)cccc2F)c(=O)n1CC(=O)N(C)C` the logD was 3.17.
`O=C1[C@@H]2[C@@H]3[C@H]4C[C@H]5[C@@H]3[C@@H]2C2(OCCO2)[C@H]5[C@@H]14` gave a logD of 0.51.
Molecule `CC(=O)N1Cc2ccccc2C[C@H]1C(=O)OCc1ccc(C#N)cc1` has a logD of 2.41.
With `CN(C)S(=O)(=O)c1cccc(Cn2c(=O)c(=O)n(Cc3ccccc3)c3ccc(Cl)cc32)c1` the logD was 3.37.
In the case of `CC[C@@H](OC(=O)CNC(=O)c1ccc(N2C(=O)c3ccccc3C2=O)cc1)C(=O)c1ccccc1`, the logD is reported as 4.15.
`COc1ccc([C@@H](C(=O)Nc2ccc3c(c2)OCCO3)N(C)C(=O)Cc2c[nH]c3ccccc23)cc1` gave a logD of 3.76.
In the case of `O=C(/C=C/c1cccs1)Nc1ccc(I)cc1`, the logD is reported as 4.67.

Same assay, conditions: pH 5.0
For `CCOC(=O)c1ccc(C#N)cc1`, the logD was 1.87.
Work on `C=C1NC(=S)N[C@H](c2ccc(-c3ccc(C(C)=O)cc3)o2)[C@H]1C(=O)OC(C)(C)C` yielded a logD of 4.53.
Molecule `CCN(CC)C(=O)[C@@]12CC[C@@](C)(C(=O)O1)C2(C)C` has a logD of 2.66.
`O=C(Nc1ccc2c(c1)OCO2)[C@@H]1COc2ccccc2O1` gave a logD of 3.28.
Molecule `CCOC(=O)C1=C(C)NC(=O)C[C@@H]1c1cc(OC)c(OC)cc1Br` has a logD of 3.93.
Work on `C[C@@]12CC[C@H]3C[C@]1(C#N)N(C(=O)c1cccc([N+](=O)[O-])c1)C[C@]32C` yielded a logD of 3.25.
For `Cc1cc(C(=O)CN2C(=O)[C@@H]3CC=CC[C@H]3C2=O)c(C)n1Cc1ccc2c(c1)OCO2`, the logD was 4.38.
With `CCOC(=O)c1[nH]c(C)c(C(=O)OCC(=O)N(C)[C@@H]2CCS(=O)(=O)C2)c1C` the logD was 3.35.
Work on `N#C[C@@H](Cc1cccs1)c1ncc(C(F)(F)F)cc1Cl` yielded a logD of 4.09.
Work on `Cc1ccccc1N[C@@H](c1ccccc1F)P(=O)(OC(C)C)OC(C)C` yielded a logD of 5.63.
With `C[C@@H](Sc1nnnn1-c1ccc(Cl)cc1)C(=O)NCC(=O)Nc1ccc(F)c(F)c1F` the logD was 4.52.
`COc1ccc([C@@H]2[C@H](C(=O)N3CCCCCC3)c3ccccc3C(=O)N2Cc2ccc(F)cc2)cc1` gave a logD of 5.01.
Work on `CCOC(=O)N1CCN(C(=O)c2noc3c2C[C@@H](C(C)(C)C)CC3)CC1` yielded a logD of 4.52.
Molecule `Cc1ccc(N2C(=O)c3ccccc3N[C@H]2c2cccc([N+](=O)[O-])c2)cc1` has a logD of 4.18.
Work on `COc1ccc2c(c1)O[C@](O)(C(F)(F)F)CC2=O` yielded a logD of 2.79.
For `CCN1C(=O)/C(=C2\SC(=S)N(Cc3ccc(OC)cc3)C2=O)c2cc(Br)ccc21`, the logD was 6.96.
With `CCCCN1C(=O)N(C)[C@@H]2[C@H]1N(C)C(=O)N2CCCC` the logD was 2.69.
With `Cc1ccc(NC(=O)[C@@H]2CCCN2C(=O)OC(C)(C)C)cc1C` the logD was 3.9.
In the case of `CCCS(=O)(=O)c1c(S(=O)(=O)CCC)c2c3ccccc3ccn2c1C(=O)c1ccccc1`, the logD is reported as 4.48.
In the case of `CCCOc1ccc(NC(=O)C[C@H]2C(=O)N(c3ccc(Cl)cc3)C(=S)N2C2CC2)cc1`, the logD is reported as 5.41.
In the case of `CCCN(CCC)S(=O)(=O)c1ccc(C(=O)N2CC[C@@H]3c4ccccc4C(=O)N3C2)cc1`, the logD is reported as 4.55.
`Cc1ccc(CNC(=O)C2CCN(S(=O)(=O)c3ccc4c(c3)OCCCO4)CC2)cc1` showed a logD of 4.01.
In the case of `COc1cc2c(cc1OC)[C@H](COc1ccc3c(C)cc(=O)oc3c1)N(C(=O)C1CCCCC1)CC2`, the logD is reported as 5.07.
With `Cc1cc(C)c([C@H]2[C@@H]3CCCC=C3C(C#N)=C(N)C2(C#N)C#N)c(C)c1` the logD was 5.48.
In the case of `CC1(C)OC[C@H](COc2c(F)c(N3CCOCC3)nc(F)c2Cl)O1`, the logD is reported as 4.07.
`Cc1ccc(N2C(=O)N(c3cccc(Cl)c3)[C@@H]3CS(=O)(=O)C[C@@H]32)cc1` showed a logD of 3.56.
Work on `COC(=O)c1ccc([C@@H]2C3=C(C[C@H](c4ccco4)CC3=O)Nc3ccccc3N2C(=O)C2CC2)cc1` yielded a logD of 4.44.
With `O=C1Nc2cc(C(=O)NC3CC3)ccc2S/C1=C\c1ccccc1` the logD was 4.32.
Work on `O=C1[C@H]2[C@@H](C(=O)N1c1ccccc1)C1(O[C@H]2c2ccccc2)C(=O)c2ccccc2C1=O` yielded a logD of 4.
`CCN(CC)S(=O)(=O)N1CCC[C@H](C(=O)NC2CCCCC2)C1` showed a logD of 3.58.
`CCOC(=O)N1CCN(C(=O)c2ccc(N3C(=O)[C@H]4CCCC[C@@H]4C3=O)cc2)CC1` showed a logD of 3.74.
With `C[C@H]1CN(C(=O)c2csc3c2CCCC3)/C(=N/c2ccc(Cl)cc2)S1` the logD was 5.53.
In the case of `COC(=O)N[C@H](O)C(=O)c1ccccc1`, the logD is reported as 1.41.
Work on `CCCC(=O)NC[C@@H](C)NC(=O)CCC` yielded a logD of 1.43.
For `COc1cc2c(cc1OC)[C@@H](COc1ccc(F)cc1)N(C(=O)/C=C/c1ccccc1)CC2`, the logD was 5.45.
Work on `O=C(NCc1ccccc1)/C(=C/c1ccc(Cl)cc1)NC(=O)c1ccccc1` yielded a logD of 4.41.
`C[C@@H]1CCCC[C@H]1NC(=O)COC(=O)C1=COCCO1` gave a logD of 2.48.
`CC(=O)Nc1ccc(/N=C/c2c(O)oc3ccccc3c2=O)cc1` gave a logD of 3.64.
Molecule `O=C1c2ccccc2C(=O)N1/N=C/c1cc([N+](=O)[O-])ccc1Cl` has a logD of 4.03.
In the case of `COc1cc(/C=N\n2cnc3sc4c(c3c2=O)CCCC4)ccc1OCc1ccccc1`, the logD is reported as 5.68.
With `COc1ccc(C(=O)/C=C/C=C(Cl)Cl)cc1` the logD was 4.4.
In the case of `Cc1ccc(C)c(NC(=O)[C@H]2CC3c4ccccc4C2c2ccccc23)c1`, the logD is reported as 5.26.
Molecule `COc1cc(/C=C/C(=O)N[C@H]2CCCc3ccccc32)cc(OC)c1OC` has a logD of 4.27.
In the case of `O=C(NCc1ccc(F)cc1)c1nn2c(c1Br)N[C@H](c1cccs1)C[C@H]2C(F)(F)F`, the logD is reported as 5.54.
With `CCN(CC)S(=O)(=O)c1ccc(/C=C/C(=O)NC2CCCCC2)cc1` the logD was 4.34.
For `O=C(N[C@H](Sc1ncccn1)C(=O)c1ccccc1)c1ccccc1`, the logD was 3.62.

Same assay, conditions: pH 6.5
`COc1ccccc1N(CCOC(=O)[C@@H]1CC(=O)N(c2ccccc2)C1)C1=NS(=O)(=O)c2ccccc21` gave a logD of 2.5.
In the case of `C[C@@H]1CCCN(c2nc3c(c(=O)n(C)c(=O)n3C)n2CCSc2nc3ccccc3s2)C1`, the logD is reported as 5.05.
Work on `O=C(CCCNC1=NS(=O)(=O)c2ccccc21)OCc1cc([N+](=O)[O-])cc2c1OCOC2` yielded a logD of 3.52.
Work on `CC[C@@H]1CCCCN1C(=O)COc1cccc2c1CCN(Cc1ccc(Cl)cc1)C2=O` yielded a logD of 5.23.
In the case of `CCCOc1ccc(N2C(=O)C[C@H](N3CCNC3=S)C2=O)cc1`, the logD is reported as 2.68.
With `O=P(Oc1ccccc1)(Oc1ccccc1)O[C@@H]1C=CS(=O)(=O)C1` the logD was 2.48.
Molecule `Cc1ccc(S(=O)(=O)/N=C2\SC(=CN(C)C)C(=O)N2C2CCCCC2)cc1` has a logD of 4.75.

Same assay, conditions: pH 7.0
`O=C(/C=C/c1ccccc1)Nc1ccc(N2CCN(C(=O)c3cccs3)CC2)cc1` showed a logD of 4.94.
For `CC(=O)Nc1ccc([C@H]2C(C#N)=C(N)Oc3c2c(C)nn3-c2cccc(Cl)c2)cc1`, the logD was 4.93.
In the case of `Cc1ccc(N[C@H]2O[C@@H](CO)[C@H](O)[C@@H](O)[C@H]2O)cc1Br`, the logD is reported as 2.28.
`Cn1c([C@@H](C#N)C(=O)[C@@H](Sc2ccccc2)c2ccccc2)nc2ccccc21` showed a logD of 5.28.

Same assay, conditions: pH 7.3
`CCCn1c2ccccc2c2nnc(SCC(=O)N[C@H](C)c3ccccc3)nc21` gave a logD of 4.36.
In the case of `CC1(C)[C@@]2(C)CC[C@]1(C(=O)Nc1ccccc1C(F)(F)F)c1nc3ccccc3nc12`, the logD is reported as 6.01.
`CC(C)[C@@H](Sc1nnc(C(F)(F)F)n1C)C(=O)NC(N)=O` showed a logD of 2.12.
Molecule `CC1=NC2=C(C(=O)CCC2)[C@H](c2ccc(Cl)cc2)C1C(=O)OCCc1ccccc1` (some centres undefined) has a logD of 5.48.
Work on `COc1ccc([C@H]2C[C@@H](c3ccc(-c4ccccc4)cc3)Nc3ncnn32)cc1` yielded a logD of 5.42.
For `CC[C@@H](SC1=Nc2ccccc2C2=N[C@@H](CC(C)C)C(=O)N12)C(=O)Nc1ccc2c(c1)OCO2`, the logD was 4.85.
For `CCCCOC(=O)C1=C(C)NC2=C(C(=O)CCC2)[C@H]1c1ccccc1OC`, the logD was 4.21.

Same assay, conditions: pH 8.0
In the case of `CC(=O)N(c1ccccc1)c1nc(/C=C/C(=O)Nc2ccc3c(c2)OCO3)cs1`, the logD is reported as 4.37.
`CC[C@H]1CS/C(=N\c2cccc(C)c2)N1C(=O)CCN1C(=O)c2ccccc2C1=O` showed a logD of 4.96.
Molecule `COc1cc(/C=C/C(=O)Nc2ccc(N3CCCCC3)cc2)ccc1OC(F)F` has a logD of 5.36.

Same assay, conditions: pH 9.0
Work on `CC(=O)Nc1ccc([C@@H]2C(C#N)=C(N)Oc3[nH]nc(-c4cc(C)sc4C)c32)cc1` yielded a logD of 4.26.

Same assay, conditions: pH 9.2
Work on `Cc1cc(C(=O)NCCc2c(C)[nH]c3ccccc23)ccc1[N+](=O)[O-]` yielded a logD of 4.12.

Same assay, conditions: pH 10.0
`CCC[C@@H](C)NC(=O)COc1ncnc2sc3c(c12)CC[C@@H](C)C3` gave a logD of 4.55.
With `CCOC(=O)C1=C(C)NC2=C(C(=O)C[C@H](c3ccc(OC)c(OC)c3)C2)[C@H]1c1ccccc1OC` the logD was 3.79.
`COc1ccc(/N=C/c2ccc(/C=N/c3ccc(OC)cc3)cc2)cc1` gave a logD of 5.24.
Molecule `CC(=O)c1ccc(N2CCN(C(=O)/C=C/c3ccc(C)o3)CC2)cc1` has a logD of 4.3.
For `O=C1[C@@H]2C3c4ccccc4C(c4ccccc43)[C@@H]2C(=O)N1c1nccs1`, the logD was 3.83.
`CCc1ccc([C@@H]2C(C(=O)OC(C)C)=C(C)N=C3SCCC(=O)N32)cc1` gave a logD of 4.75.
`CC1=C(C(=O)OC[C@@H]2CCCO2)[C@H](c2cc([N+](=O)[O-])ccc2Cl)C2=C(CC(C)(C)CC2=O)N1` gave a logD of 4.53.
`CCn1c(SCC(=O)NC(C)(C)C)nnc1C1CCCCC1` gave a logD of 3.2.
With `C(=N\n1cnnc1)/c1ccc(-n2nc(-c3ccccc3)cc2-c2ccccc2)cc1` the logD was 5.58.

Same assay, conditions: pH 10.5
`CN(C)/C=C/C(=O)c1ccc(C#Cc2ccccc2)cc1` gave a logD of 4.69.
In the case of `COC(=O)CC1=C(C(=O)OC)[C@]2(C(=O)Nc3ccccc32)C(C(=O)OCc2ccccc2)=C(N)O1`, the logD is reported as 4.25.
For `COC(=O)c1c(C)sc2c1OC(N)=C(C#N)[C@@H]2c1cc(Br)cs1`, the logD was 5.06.
Molecule `CC[C@@H]1CCCCN1C(=O)CSc1nc(C)cc(C)n1` has a logD of 3.61.
`CCN(C(=O)[C@@H](C)OC(=O)c1cc(OC)c(OC)c(OC)c1)c1ccccc1` showed a logD of 3.4.
For `N#CC1=C(N)Oc2c(c(=O)oc3ccccc23)[C@H]1c1cccs1`, the logD was 2.34.
For `OC[C@@H](O)Cn1c(SCCSc2nc3ccccc3n2C[C@H](O)CO)nc2ccccc21`, the logD was 3.29.
Molecule `CCOc1cc(/C=N/n2cnc3sc(C)c(C)c3c2=O)cc(Br)c1OCC(N)=O` has a logD of 4.98.
Molecule `COc1cc([C@@H]2C(C#N)=C(N)Oc3[nH]nc(C)c32)ccc1OCc1cccc(F)c1` has a logD of 4.42.
`Clc1ccc(/C=N/NC2=Cn3c(nc4ccccc43)NN2)cc1` gave a logD of 4.81.
In the case of `Cc1cc2c(c(=O)o1)[C@@H](c1cccc(F)c1F)C(C#N)=C(N)O2`, the logD is reported as 3.1.
`C=CCn1c(SCC(=O)N2C[C@@]3(C)C[C@@H]2CC(C)(C)C3)nc2sc(CC)cc2c1=O` showed a logD of 6.04.
